# ChEMBL document CHEMBL3885881, “DrugMatrix”
# Species: Rattus norvegicus
# Test: DrugMatrix - Regimen: Daily Repeat
# Type: toxicity, organism-based, Sprague-Dawley
# Design: regimen Daily Repeat, gender Male, age 6-8 weeks
# Details: in vivo, iv, vehicle 100 % SALINE; for ABSOLUTE BASOPHIL / ABSOLUTE EOSINOPHIL / ABSOLUTE LYMPHOCYTE / ABSOLUTE MONOCYTE / ABSOLUTE SEGMENTED NEUTROPHIL / BASOPHIL / EOSINOPHIL / ERYTHROCYTE COUNT / HEMATOCRIT / HEMOGLOBIN / LEUKOCYTE COUNT / LYMPHOCYTE / MEAN CORPUSCULAR HEMOGLOBIN / MEAN CORPUSCULAR HEMOGLOBIN CONCENTRATION / MEAN CORPUSCULAR VOLUME / MONOCYTE / NEUTROPHIL / NUCLEATED RED BLOOD CELLS / PLATELET COUNT: tissue Blood; for ALANINE AMINOTRANSFERASE / ALBUMIN / ALKALINE PHOSPHATASE / ASPARTATE AMINOTRANSFERASE / BLOOD UREA NITROGEN / CARBON DIOXIDE / CHLORIDE / CHOLESTEROL / CREATINE PHOSPHOKINASE / CREATININE / GLUCOSE / LACTATE DEHYDROGENASE / LIPASE / PHOSPHORUS / POTASSIUM / SODIUM / TOTAL BILIRUBIN / TOTAL PROTEIN / URIC ACID: tissue Plasma
# [1] = 0 mg/kg, 72 h, dose level Control, time 3 day
# [2] = 0 mg/kg, 120 h, dose level Control, time 5 day
# [3] = 3 mg/kg, 72 h, dose level Low, time 3 day
compound,measurement,setting,value
O=c1[nH]c(=O)n([C@H]2C[C@H](O)[C@@H](CO)O2)cc1F [FLOXURIDINE],ABSOLUTE BASOPHIL,[1],0 CELLS/uL
same,ABSOLUTE EOSINOPHIL,[1],0 CELLS/uL
same,ABSOLUTE LYMPHOCYTE,[1],11636.83 CELLS/uL
same,ABSOLUTE MONOCYTE,[1],159 CELLS/uL
same,ABSOLUTE SEGMENTED NEUTROPHIL,[1],1170.83 CELLS/uL
same,BASOPHIL,[1],0%
same,EOSINOPHIL,[1],0%
same,ERYTHROCYTE COUNT,[1],5.46 x10E6/uL
same,HEMATOCRIT,[1],34.05%
same,HEMOGLOBIN,[1],13.58 G/DL
same,LEUKOCYTE COUNT,[1],12.97 x10E3/uL
same,LYMPHOCYTE,[1],89.67%
same,MEAN CORPUSCULAR HEMOGLOBIN,[1],24.87 pg
same,MEAN CORPUSCULAR HEMOGLOBIN CONCENTRATION,[1],39.9 G/DL
same,MEAN CORPUSCULAR VOLUME,[1],62.3 fL
same,MONOCYTE,[1],1.33%
same,NEUTROPHIL,[1],9%
same,NUCLEATED RED BLOOD CELLS,[1],0.17 /100WBC
same,PLATELET COUNT,[1],824 x10E3/uL
same,ALANINE AMINOTRANSFERASE,[1],64.83 u/L
same,ALBUMIN,[1],4.08 G/DL
same,ALKALINE PHOSPHATASE,[1],421 u/L
same,ASPARTATE AMINOTRANSFERASE,[1],116.83 u/L
same,BLOOD UREA NITROGEN,[1],16.83 mg/dL
same,CARBON DIOXIDE,[1],28 mmol/L
same,CHLORIDE,[1],101.33 MEQ/L
same,CHOLESTEROL,[1],74.17 mg/dL
same,CREATINE PHOSPHOKINASE,[1],748.5 u/L
same,CREATININE,[1],0.22 mg/dL
same,GLUCOSE,[1],152.83 mg/dL
same,LACTATE DEHYDROGENASE,[1],578.5 u/L
same,LIPASE,[1],9.83 u/L
same,PHOSPHORUS,[1],11.63 mg/dL
same,POTASSIUM,[1],5.93 MEQ/L
same,SODIUM,[1],142.1 MEQ/L
same,TOTAL BILIRUBIN,[1],0.17 mg/dL
same,TOTAL PROTEIN,[1],5.77 G/DL
same,URIC ACID,[1],1.43 mg/dL
same,ABSOLUTE BASOPHIL,[2],0 CELLS/uL
same,ABSOLUTE EOSINOPHIL,[2],159.17 CELLS/uL
same,ABSOLUTE LYMPHOCYTE,[2],12267.5 CELLS/uL
same,ABSOLUTE MONOCYTE,[2],30 CELLS/uL
same,ABSOLUTE SEGMENTED NEUTROPHIL,[2],1160 CELLS/uL
same,BASOPHIL,[2],0%
same,EOSINOPHIL,[2],1.17%
same,ERYTHROCYTE COUNT,[2],5.52 x10E6/uL
same,HEMATOCRIT,[2],34.3%
same,HEMOGLOBIN,[2],13.73 G/DL
same,LEUKOCYTE COUNT,[2],13.62 x10E3/uL
same,LYMPHOCYTE,[2],90.5%
same,MEAN CORPUSCULAR HEMOGLOBIN,[2],24.92 pg
same,MEAN CORPUSCULAR HEMOGLOBIN CONCENTRATION,[2],40.07 G/DL
same,MEAN CORPUSCULAR VOLUME,[2],62.17 fL
same,MONOCYTE,[2],0.17%
same,NEUTROPHIL,[2],8.17%
same,NUCLEATED RED BLOOD CELLS,[2],0.17 /100WBC
same,PLATELET COUNT,[2],1261.83 x10E3/uL
same,ALANINE AMINOTRANSFERASE,[2],58.67 u/L
same,ALBUMIN,[2],4.15 G/DL
same,ALKALINE PHOSPHATASE,[2],364.67 u/L
same,ASPARTATE AMINOTRANSFERASE,[2],105.33 u/L
same,BLOOD UREA NITROGEN,[2],17.67 mg/dL
same,CARBON DIOXIDE,[2],26.5 mmol/L
same,CHLORIDE,[2],101.67 MEQ/L
same,CHOLESTEROL,[2],63 mg/dL
same,CREATINE PHOSPHOKINASE,[2],480.67 u/L
same,CREATININE,[2],0.17 mg/dL
same,GLUCOSE,[2],144.67 mg/dL
same,LACTATE DEHYDROGENASE,[2],540.33 u/L
same,LIPASE,[2],10.33 u/L
same,PHOSPHORUS,[2],11.52 mg/dL
same,POTASSIUM,[2],6.12 MEQ/L
same,SODIUM,[2],142.45 MEQ/L
same,TOTAL BILIRUBIN,[2],0.18 mg/dL
same,TOTAL PROTEIN,[2],5.73 G/DL
same,URIC ACID,[2],1.48 mg/dL
same,ABSOLUTE BASOPHIL,[3],0 CELLS/uL
same,ABSOLUTE EOSINOPHIL,[3],0 CELLS/uL
same,ABSOLUTE LYMPHOCYTE,[3],9392.67 CELLS/uL
same,ABSOLUTE MONOCYTE,[3],101.67 CELLS/uL
same,ABSOLUTE SEGMENTED NEUTROPHIL,[3],505.67 CELLS/uL
same,BASOPHIL,[3],0%
same,EOSINOPHIL,[3],0%
same,ERYTHROCYTE COUNT,[3],5.12 x10E6/uL
same,HEMATOCRIT,[3],32.33%
same,HEMOGLOBIN,[3],13.1 G/DL
same,LEUKOCYTE COUNT,[3],10 x10E3/uL
same,LYMPHOCYTE,[3],94%
same,MEAN CORPUSCULAR HEMOGLOBIN,[3],25.7 pg
same,MEAN CORPUSCULAR HEMOGLOBIN CONCENTRATION,[3],40.53 G/DL
same,MEAN CORPUSCULAR VOLUME,[3],63.17 fL
same,MONOCYTE,[3],1%
same,NEUTROPHIL,[3],5%
same,NUCLEATED RED BLOOD CELLS,[3],0 /100WBC
same,PLATELET COUNT,[3],833.67 x10E3/uL
same,ALANINE AMINOTRANSFERASE,[3],54.67 u/L
same,ALBUMIN,[3],4.4 G/DL
same,ALKALINE PHOSPHATASE,[3],391.67 u/L
same,ASPARTATE AMINOTRANSFERASE,[3],100 u/L
same,BLOOD UREA NITROGEN,[3],17 mg/dL
same,CARBON DIOXIDE,[3],29.67 mmol/L
same,CHLORIDE,[3],101 MEQ/L
same,CHOLESTEROL,[3],79 mg/dL
same,CREATINE PHOSPHOKINASE,[3],755 u/L
same,CREATININE,[3],0.22 mg/dL
same,GLUCOSE,[3],171 mg/dL
same,LACTATE DEHYDROGENASE,[3],240.33 u/L
same,LIPASE,[3],9 u/L
same,PHOSPHORUS,[3],10.77 mg/dL
same,POTASSIUM,[3],6.26 MEQ/L
same,SODIUM,[3],142.13 MEQ/L
same,TOTAL BILIRUBIN,[3],0.2 mg/dL
same,TOTAL PROTEIN,[3],6.17 G/DL
same,URIC ACID,[3],2.23 mg/dL
